Assay results reported in US12655173B2, “Hybrid amide derivatives of amphotericin B” (priority 2020, dated 2026).
Converted amounts (≈) assume the structure as drawn. Like-named read-outs stand apart in the source and are kept apart here.

What was measured:
[1] = test system: A. fumigatus; test: MIC against moulds; format: cell-based
[2] = test system: Cunninghamella sp.; test: MIC against moulds; format: cell-based; settings: 6 isolates, AmB (AmBisome)
[3] = test system: yeast; test: MICavg / Average MIC against yeasts; format: cell-based; settings: for MIC: 46 isolates, Table 3
[4] = test system: moulds; test: MICavg / Average MIC against moulds; format: cell-based; settings: for MIC: 157 isolates, Table 2
[5] = test system: Scedosporium boydii; test: MIC against rare moulds resistant to AmB; format: cell-based; settings: 6 isolates, Table 4
[6] = test system: P. variotii MYA-3630 (QC); test: MIC against moulds; format: cell-based; settings: 5 isolates, AmB (AmBisome)
[7] = test system: Scedosporium aurantiacum; test: MIC against rare moulds resistant to AmB; format: cell-based; settings: 4 isolates, Table 4
[8] = test system: Fonsecaeu sp.; test: MIC against moulds; format: cell-based; settings: 6 isolates; AmB (AmBisome)
[9] = test system: Blastomyces dermatitidis; test: MIC against moulds; format: cell-based; settings: 5 isolates, AmB (AmBisome)
[10] = test system: Saksenaea sp.; test: MIC against moulds; format: cell-based; settings: 4 isolates; AmB (AmBisome)
[11] = test system: Syncephalastrum sp.; test: MIC against moulds; format: cell-based; settings: 6 isolates, AmB (AmBisome)
[12] = test system: Mucor circinelloides; test: MIC against moulds; format: cell-based; settings: for MIC Mucor circinelloides: 6 isolates, AmB (AmBisome)
[13] = test system: Purpureocillium lilacinum; test: MIC against rare moulds resistant to AmB; format: cell-based; settings: 6 isolates, Table 4
[14] = test system: Claophialophora bantiana; test: MIC against moulds; format: cell-based; settings: 6 isolates; AmB (AmBisome)
[15] = Blood plasma stability, mouse; format: in vitro ADME
[16] = Blood plasma stability, human; format: in vitro ADME
[17] = test system: Mucor janssenii; test: MIC against moulds; format: cell-based; settings: 6 isolates, AmB (AmBisome)
[18] = test system: Mucor velutinosus; test: MIC against moulds; format: cell-based; settings: 6 isolates, AmB (AmBisome)
[19] = test system: A. tubingensis; test: MIC against moulds; format: cell-based; settings: for MIC A. tubingensis: 6 isolates, AmB (AmBisome)
[20] = test system: Lomentospora prolificans; test: MIC against rare moulds resistant to AmB; format: cell-based; settings: 6 isolates, Table 4
[21] = test system: Fusarium oxysporum; test: MIC against moulds; format: cell-based; settings: 6 isolates, AmB (AmBisome)
[22] = test system: Rhodotorula sp.; test: MIC against yeasts; format: cell-based; settings: 6 isolates, Table 3
[23] = test system: Licht. Corymbifera; test: MIC against moulds; format: cell-based; settings: 6 isolates, AmB (AmBisome)
[24] = test system: A. lentulus; test: MIC against moulds; format: cell-based; settings: 6 isolates, AmB (AmBisome)
[25] = test system: Histoplasma capsulatum; test: microbe, parasite or virus in culture; format: cell-based; settings: for MIC Histoplasma capsulatum: 6 isolates, AmB (AmBisome)
[26] = test system: Coccidioides posadasii; test: microbe, parasite or virus in culture; format: cell-based; settings: for MIC Coccidioides posadasii: 6 isolates, AmB (AmBisome)
[27] = test system: A. terreus; test: MIC against moulds; format: cell-based
[28] = test system: Sporothrix schenckii; test: MIC against rare moulds resistant to AmB; format: cell-based; settings: 6 isolates, Table 4
[29] = test system: A. niger; test: MIC against moulds; format: cell-based; settings: 6 isolates, AmB (AmBisome)
[30] = test system: Cryptococcus neoformans; test: MIC against yeasts; format: cell-based
[31] = test system: A. flavus; test: MIC against moulds; format: cell-based
[32] = test system: Candida krusei; test: MIC against yeasts; format: cell-based
[33] = test system: A. calldoustus; test: MIC against moulds; format: cell-based; settings: 6 isolates; AmB (AmBisome)
[34] = test system: Fusarium solani; test: MIC against moulds; format: cell-based
[35] = test system: Licht. Ramosa; test: MIC against moulds; format: cell-based; settings: 6 isolates; AmB (AmBisome)
[36] = test system: Talaromyces marneffei; test: MIC against moulds; format: cell-based; settings: 6 isolates, AmB (AmBisome)
[37] = 2 isolates, Table 3, read-out: MIC Candida krusei

## CC1C=CC=CC=CC=CC=CC=CC=CC(OC2OC(C)C(O)C(N)C2O)CC2OC(O)(CC(O)CC(O)C(O)CCC(O)CC(O)CC(=O)OC(C)C(C)C1O)CC(O)C2C(=O)NC(CO)(CO)CO (stereo not drawn) [Compound 2]
[1]; 5 isolates, AmB (AmBisome)
  MIC: 2.33 µM (≈ 2.39 µg/mL)
[2]
  MIC: 5.33 µM (≈ 5.48 µg/mL)
[3]
  MICavg yeast (5 strains): 0.41
  MIC: 2.3 µM (≈ 2.36 µg/mL)
  MICavg yeast (46 strains): 2.3
[4]
  MICavg moulds (3 strains): 1
  MIC: 2.6 µM (≈ 2.67 µg/mL)
  MICavg moulds (159 strains): 2.6
[5]
  MIC: >16 µM
[6]
  MIC: 2.67 µM (≈ 2.74 µg/mL)
[7]
  MIC: >16 µM
[8]
  MIC: <0.03 µM
[9]
  MIC: 0.6 µM (≈ 0.616 µg/mL)
[10]
  MIC: 0.36 µM (≈ 0.37 µg/mL)
[11]
  MIC: 1 µM (≈ 1.03 µg/mL)
[12]
  MIC Mucor circinelloides: 0.92 µM (≈ 0.945 µg/mL)
[13]
  MIC: >16 µM
[14]
  MIC: 1.83 µM (≈ 1.88 µg/mL)
[15]
  Blood Plasma Stability (T1/2, min) Mouse: 265.1 min
[16]
  Blood Plasma Stability (T1/2, min) Human: > 289 min
[17]
  MIC: 0.92 µM (≈ 0.945 µg/mL)
[18]
  MIC: 1.17 µM (≈ 1.2 µg/mL)
[19]
  MIC A. tubingensis: 0.92 µM (≈ 0.945 µg/mL)
[20]
  MIC: >16 µM
[21]
  MIC: 13.3 µM (≈ 13.7 µg/mL)
[22]
  MIC: 3.7 µM (≈ 3.8 µg/mL)
[23]
  MIC: 1 µM (≈ 1.03 µg/mL)
[24]
  MIC: 4.33 µM (≈ 4.45 µg/mL)
[25]
  MIC Histoplasma capsulatum: 0.08 µM (≈ 0.0822 µg/mL)
[26]
  MIC Coccidioides posadasii: 0.5 µM (≈ 0.514 µg/mL)
[27]; 6 isolates, AmB (AmBisome)
  MIC: 2.3 µM (≈ 2.36 µg/mL)
[28]
  MIC: >5.2 µM
[29]
  MIC: 0.75 µM (≈ 0.77 µg/mL)
[30]; 10 isolates, Table 3
  MIC: 2 µM (≈ 2.05 µg/mL)
[31]; 6 isolates, AmB (AmBisome)
  MIC: 1.67 µM (≈ 1.72 µg/mL)
[32]; [37]
  MIC: 3 µM (≈ 3.08 µg/mL)
[33]
  MIC: 2.33 µM (≈ 2.39 µg/mL)
[34]; 6 isolates, AmB (AmBisome)
  MIC: 14 µM (≈ 14.4 µg/mL)
[35]
  MIC: 0.75 µM (≈ 0.77 µg/mL)
[36]
  MIC: 0.21 µM (≈ 0.216 µg/mL)

## CC1C=CC=CC=CC=CC=CC=CC=CC(OC2OC(C)C(O)C(N)C2O)CC2OC(O)(CC(O)CC(O)C(O)CCC(O)CC(O)CC(=O)OC(C)C(C)C1O)CC(O)C2C(=O)NC(CO)CO (stereo not drawn) [Compound 1]
[1]; 5 isolates, AmB (AmBisome)
  MIC: 1.33 µM (≈ 1.33 µg/mL)
[2]
  MIC: 4 µM (≈ 3.99 µg/mL)
[3]
  MICavg yeast (5 strains): 0.53
  MIC: 2.1 µM (≈ 2.09 µg/mL)
  MICavg yeast (46 strains): 2.1
[4]
  MICavg moulds (3 strains): 1.6
  MIC: 1.4 µM (≈ 1.4 µg/mL)
  MICavg moulds (159 strains): 1.4
[5]
  MIC: >16 µM
[6]
  MIC: 2 µM (≈ 1.99 µg/mL)
[7]
  MIC: >16 µM
[8]
  MIC: <0.03 µM
[9]
  MIC: 0.25 µM (≈ 0.249 µg/mL)
[10]
  MIC: 0.23 µM (≈ 0.229 µg/mL)
[11]
  MIC: 0.5 µM (≈ 0.499 µg/mL)
[12]
  MIC Mucor circinelloides: 0.58 µM (≈ 0.578 µg/mL)
[13]
  MIC: >16 µM
[14]
  MIC: 1.17 µM (≈ 1.17 µg/mL)
[15]
  Blood Plasma Stability (T1/2, min) Mouse: >289; >289 min
[16]
  Blood Plasma Stability (T1/2, min) Human: >289; >289 min
[17]
  MIC: 0.5 µM (≈ 0.499 µg/mL)
[18]
  MIC: 0.67 µM (≈ 0.668 µg/mL)
[19]
  MIC A. tubingensis: 0.83 µM (≈ 0.828 µg/mL)
[20]
  MIC: >16 µM
[21]
  MIC: 6 µM (≈ 5.98 µg/mL)
[22]
  MIC: 2.8 µM (≈ 2.79 µg/mL)
[23]
  MIC: 0.5 µM (≈ 0.499 µg/mL)
[24]
  MIC: 2.33 µM (≈ 2.32 µg/mL)
[25]
  MIC Histoplasma capsulatum: 0.06 µM (≈ 0.0598 µg/mL)
[26]
  MIC Coccidioides posadasii: 0.25 µM (≈ 0.249 µg/mL)
[27]; 6 isolates, AmB (AmBisome)
  MIC: 2 µM (≈ 1.99 µg/mL)
[28]
  MIC: 6 µM (≈ 5.98 µg/mL)
[29]
  MIC: 0.5 µM (≈ 0.499 µg/mL)
[30]; 10 isolates, Table 3
  MIC: 2 µM (≈ 1.99 µg/mL)
[31]; 6 isolates, AmB (AmBisome)
  MIC: 1.67 µM (≈ 1.67 µg/mL)
[32]; [37]
  MIC: 2 µM (≈ 1.99 µg/mL)
[33]
  MIC: 2.17 µM (≈ 2.16 µg/mL)
[34]; 6 isolates, AmB (AmBisome)
  MIC: 5.67 µM (≈ 5.65 µg/mL)
[35]
  MIC: 0.58 µM (≈ 0.578 µg/mL)
[36]
  MIC: 0.12 µM (≈ 0.12 µg/mL)

## C[C@@H]1[C@H](O)[C@@H](C)/C=C/C=C/C=C/C=C/C=C/C=C/C=C/[C@H](OC2O[C@H](C)[C@@H](O)[C@H](N)[C@@H]2O)C[C@@H]2O[C@](O)(C[C@@H](O)C[C@@H](O)[C@H](O)CC[C@@H](O)C[C@@H](O)CC(=O)O[C@H]1C)C[C@H](O)[C@H]2C(=O)O (stereo partly drawn) [AmB, Amphotericin B]
[1]; Aspergillus fumigatus, 5 isolates, AmB (AmBisome)
  MIC: 0.71 µM (≈ 0.656 µg/mL)
[1]; Aspergillus fumigatus, 16 isolates, Table 2A
  MIC: 2.1 µM (≈ 1.94 µg/mL)
[2]; Cunninghamella
  MIC: 2 µM (≈ 1.85 µg/mL)
[3]
  MICavg yeast (5 strains): 0.23
  MIC: 0.9 µM (≈ 0.832 µg/mL)
  MICavg yeast (46 strains): 0.9
[4]
  MICavg moulds (3 strains): 0.92
  MIC: 0.9 µM (≈ 0.832 µg/mL)
  MICavg moulds (159 strains): 0.9
[5]; Scedosporium boydii
  MIC: > 16 µM
[6]; Paecilomyces variotii
  MIC: 1 µM (≈ 0.924 µg/mL)
[7]; Scedosporium aurantiacum
  MIC: > 16 µM
[8]
  MIC: < 0.03 µM
[9]; Blastomyces dermatitidis
  MIC: < 0.03 µM
[10]
  MIC: 0.06 µM (≈ 0.0554 µg/mL)
[11]; Syncephalastrum
  MIC: 0.06 µM (≈ 0.0554 µg/mL)
[12]; Mucor circinelloides, read-out: MIC Mucor circinelloides
  MIC: 0.125 µM (≈ 0.116 µg/mL)
[13]; Purpureocillium lilacinum
  MIC: > 16 µM
[14]
  MIC: 0.375 µM (≈ 0.347 µg/mL)
[15]; mouse, blood plasma, read-out: Blood Plasma Stability (T1/2, min) Mouse
  half-life: > 289 min
[16]; human, blood plasma, read-out: Blood Plasma Stability (T1/2, min) Human
  half-life: > 289 min
[17]; Mucor janssenii
  MIC: 0.06 µM (≈ 0.0554 µg/mL)
[18]; Mucor velutinosus
  MIC: 0.08 µM (≈ 0.0739 µg/mL)
[19]; Aspergillus tubingensis, read-out: MIC A. tubingensis
  MIC: 0.125 µM (≈ 0.116 µg/mL)
[20]; Lomentospora prolificans
  MIC: > 16 µM
[21]; Fusarium oxysporum
  MIC: 1.5 µM (≈ 1.39 µg/mL)
[22]; Rhodotorula
  MIC: 1 µM (≈ 0.924 µg/mL)
[23]; Lichtheimia corymbifera
  MIC: 0.23 µM (≈ 0.213 µg/mL)
[24]; Aspergillus lentulus
  MIC: 3.75 µM (≈ 3.47 µg/mL)
[25]; Histoplasma capsulatum, read-out: MIC Histoplasma capsulatum
  MIC: 0.06 µM (≈ 0.0554 µg/mL)
[26]; Coccidioides posadasii, read-out: MIC Coccidioides posadasii
  MIC: 0.06 µM (≈ 0.0554 µg/mL)
[27]; Aspergillus terreus, 5 isolates, Table 2A
  MIC: 7 µM (≈ 6.47 µg/mL)
[27]; Aspergillus terreus, 6 isolates, AmB (AmBisome)
  MIC: 3 µM (≈ 2.77 µg/mL)
[28]; Sporothrix schenckii
  MIC: 4 µM (≈ 3.7 µg/mL)
[29]; Aspergillus niger
  MIC: 0.21 µM (≈ 0.194 µg/mL)
[30]; Cryptococcus neoformans, 3 isolates, Table 3A
  MIC: 1.17 µM (≈ 1.08 µg/mL)
[30]; Cryptococcus neoformans, 10 isolates, Table 3
  MIC: 0.55 µM (≈ 0.508 µg/mL)
[31]; Aspergillus flavus, 3 isolates, Table 2A
  MIC: 4 µM (≈ 3.7 µg/mL)
[31]; Aspergillus flavus, 6 isolates, AmB (AmBisome)
  MIC: 1.16 µM (≈ 1.07 µg/mL)
[32]; Pichia kudriavzevii, read-out: MIC Candida krasei
  MIC: 2.5 µM (≈ 2.31 µg/mL)
[32]; Pichia kudriavzevii, 2 isolates, Table 3, read-out: MIC Candida krusei
  MIC: 1 µM (≈ 0.924 µg/mL)
[33]
  MIC: 1.5 µM (≈ 1.39 µg/mL)
[34]; Fusarium solani, 2 isolates, Table 3A
  MIC: 3 µM (≈ 2.77 µg/mL)
[34]; Fusarium solani, 6 isolates, AmB (AmBisome)
  MIC: 1.33 µM (≈ 1.23 µg/mL)
[35]
  MIC: 0.15 µM (≈ 0.139 µg/mL)
[36]; Talaromyces marneffei
  MIC: 0.09 µM (≈ 0.0832 µg/mL)
